{"source": "PubChem BioAssay AID344", "about": "(DTP/NCI, 2004)", "test_system": "mice, LPC-1 plasma cell tumor ip, median survival T/C", "test": "NCI In Vivo Anticancer Drug Screen. Data for tumor model Lieberman Plasma Cell No. 1 (LPC-1) (intraperitoneal) in unknown mice", "conditions": "endpoint: median survival time, higher = longer survival", "method": "The antitumor activity of compounds was measured in mice bearing transplantable tumors. Survival or tumor size were measured and the results are expressed as the measurement made in the treated group (T) divided by the measurement made in the vehicle treated control group (C). The tumor model used in this assay is Lieberman Plasma Cell No. 1 (LPC-1) (intraperitoneal) in unknown mice", "key": {"[1]": {"conditions": "dose: 75.0 mg/kg/injection, schedule: Q01DX028 (sc), vehicle: carboxymethylcellulose (CMC)"}, "[2]": {"conditions": "dose: 0.25 mg/kg/injection, schedule: Q01DX028 (sc), vehicle: saline"}, "[3]": {"conditions": "dose: 0.39 mg/kg/injection, schedule: Q01DX028 (sc), vehicle: other"}, "[4]": {"conditions": "dose: 0.65 mg/kg/injection, schedule: Q01DX028 (sc), vehicle: other"}, "[5]": {"conditions": "dose: 1.08 mg/kg/injection, schedule: Q01DX028 (sc), vehicle: other"}, "[6]": {"conditions": "dose: 1.8 mg/kg/injection, schedule: Q01DX028 (sc), vehicle: other"}, "[7]": {"conditions": "dose: 2.0 mg/kg/injection, schedule: Q01DX028 (sc), vehicle: saline"}}, "note": "Where “and” joins values, the source holds several entries; their conditions need not be identical. Equal values may be shown once. Toxic doses and inconclusive results are not listed. *1 amine or outer side, *2 acyl side, *3 side chain or, on linkers, in order; H or OH if unused. Where a SMILES comes first, the peptide text is derived from it. Bridges are numbered along the chain shown (N, C = ends). Roman numbers before positions name the chains, in order. [ ]: non-standard residue; d: D form. Actinocin(9to1) = Cc1c2oc3c(C)ccc(C(=O)[*:1])c3nc-2c(C(=O)[*:2])c(N)c1=O; aThr = C[C@H](O)[C@H](N)C(=O)O; NMeV = CN[C@H](C(=O)O)C(C)C; Sar = CNCC(=O)O", "data": [{"compound": "CCOC(=O)C(Cc1ccc(N(CCCl)CCCl)cc1)NC=O", "note": "(stereo unspecified)", "values": [{"measurement": "T/C", "setting": "dose: 18.7 mg/kg/injection, schedule: Q01DX028 (sc), vehicle: carboxymethylcellulose (CMC)", "value": "176 % of control"}, {"measurement": "T/C", "setting": "[1]", "value": "184 % of control"}, {"measurement": "T/C", "setting": "dose: 150.0 mg/kg/injection, schedule: Q01DX028 (sc), vehicle: carboxymethylcellulose (CMC)", "value": "115 % of control"}, {"measurement": "T/C", "setting": "dose: 300.0 mg/kg/injection, schedule: Q01DX028 (sc), vehicle: carboxymethylcellulose (CMC)", "value": "92 % of control"}]}, {"compound": "Cc1c2oc3c(C)ccc(C(=O)N[C@@H]4C(=O)N[C@H](C(C)C)C(=O)N5CCC[C@H]5C(=O)N(C)CC(=O)N(C)[C@@H](C(C)C)C(=O)O[C@H]4C)c3nc-2c(C(=O)N[C@@H]2C(=O)N[C@H](C(C)C)C(=O)N3CCC[C@H]3C(=O)N(C)CC(=O)N(C)[C@@H](C(C)C)C(=O)O[C@H]2C)c(N)c1=O", "note": "(I: [aThr][dV]P[Sar][NMeV] / II: [aThr][dV]P[Sar][NMeV]; ester I:1-I:C, II:1-II:C; linker I:N-II:N via Actinocin(9to1))", "values": [{"measurement": "T/C", "setting": "dose: 0.03 mg/kg/injection, schedule: Q01DX028 (sc), vehicle: saline", "value": "95 % of control"}, {"measurement": "T/C", "setting": "dose: 0.06 mg/kg/injection, schedule: Q01DX028 (sc), vehicle: saline", "value": "100 % of control"}, {"measurement": "T/C", "setting": "dose: 0.13 mg/kg/injection, schedule: Q01DX028 (sc), vehicle: saline", "value": "95 % of control"}, {"measurement": "T/C", "setting": "[2]", "value": "90 % of control"}]}, {"compound": "COC1=C(N)C(=O)c2nc(-c3nc(C(=O)O)c(C)c(-c4ccc(OC)c(OC)c4O)c3N)ccc2C1=O", "values": [{"measurement": "T/C", "setting": "dose: 0.14 mg/kg/injection, schedule: Q01DX028 (sc), vehicle: other", "value": "100 % of control"}, {"measurement": "T/C", "setting": "dose: 0.23 mg/kg/injection, schedule: Q01DX028 (sc), vehicle: other", "value": "113 % of control"}, {"measurement": "T/C", "setting": "[3]", "value": "115 % of control"}, {"measurement": "T/C", "setting": "[4]", "value": "115 % of control"}, {"measurement": "T/C", "setting": "[5]", "value": "94 % of control"}, {"measurement": "T/C", "setting": "[6]", "value": "100 % of control"}]}, {"compound": "CO[C@@]12[C@H](COC(N)=O)C3=C(C(=O)C(C)=C(N)C3=O)N1C[C@@H]1N[C@@H]12", "values": [{"measurement": "T/C", "setting": "[2]", "value": "191 % of control"}, {"measurement": "T/C", "setting": "dose: 0.5 mg/kg/injection, schedule: Q01DX028 (sc), vehicle: saline", "value": "161 % of control"}, {"measurement": "T/C", "setting": "dose: 1.0 mg/kg/injection, schedule: Q01DX028 (sc), vehicle: saline", "value": "111 % of control"}, {"measurement": "T/C", "setting": "[7]", "value": "100 % of control"}]}, {"compound": "CS(=O)(=O)OCCCCCOS(C)(=O)=O", "values": [{"measurement": "T/C", "setting": "dose: 10.0 mg/kg/injection, schedule: Q01DX028 (sc), vehicle: water", "value": "107 % of control"}, {"measurement": "T/C", "setting": "dose: 40.0 mg/kg/injection, schedule: Q01DX028 (sc), vehicle: water", "value": "107 % of control"}, {"measurement": "T/C", "setting": "dose: 44.0 mg/kg/injection, schedule: Q01DX028 (sc), vehicle: carboxymethylcellulose (CMC)", "value": "120 % of control"}]}, {"compound": "COC(=O)c1nc(-c2ccc3c(n2)C(=O)C(N)=C(OC)C3=O)c(N)c(-c2ccc(OC)c(OC)c2O)c1C", "values": [{"measurement": "T/C", "setting": "[3]", "value": "100 % of control"}, {"measurement": "T/C", "setting": "[4]", "value": "100 % of control"}, {"measurement": "T/C", "setting": "[5]", "value": "100 % of control"}, {"measurement": "T/C", "setting": "[6]", "value": "100 % of control"}, {"measurement": "T/C", "setting": "dose: 3.0 mg/kg/injection, schedule: Q01DX028 (sc), vehicle: other", "value": "100 % of control"}, {"measurement": "T/C", "setting": "dose: 5.0 mg/kg/injection, schedule: Q01DX028 (sc), vehicle: other", "value": "102 % of control"}]}, {"compound": "Cn1cnc([N+](=O)[O-])c1Sc1ncnc2nc[nH]c12", "values": [{"measurement": "T/C", "setting": "dose: 25.0 mg/kg/injection, schedule: Q01DX028 (sc), vehicle: carboxymethylcellulose (CMC)", "value": "102 % of control"}, {"measurement": "T/C", "setting": "dose: 50.0 mg/kg/injection, schedule: Q01DX028 (sc), vehicle: carboxymethylcellulose (CMC)", "value": "111 % of control and 114 % of control"}, {"measurement": "T/C", "setting": "[1]", "value": "108 % of control"}, {"measurement": "T/C", "setting": "dose: 100.0 mg/kg/injection, schedule: Q01DX028 (sc), vehicle: carboxymethylcellulose (CMC)", "value": "108 % of control"}]}, {"compound": "Cc1c2c(c(C)c3c1OC(C)(C)CC3)OC(C)(C)CC2", "values": [{"measurement": "T/C", "setting": "dose: 50.0 mg/kg/injection, schedule: Q01DX009 (sc), vehicle: saline", "value": "104 % of control"}, {"measurement": "T/C", "setting": "dose: 100.0 mg/kg/injection, schedule: Q01DX009 (sc), vehicle: saline", "value": "97 % of control"}, {"measurement": "T/C", "setting": "dose: 200.0 mg/kg/injection, schedule: Q01DX009 (sc), vehicle: saline", "value": "95 % of control"}, {"measurement": "T/C", "setting": "dose: 400.0 mg/kg/injection, schedule: Q01DX009 (sc), vehicle: saline", "value": "90 % of control"}]}, {"compound": "CN(Cc1cnc2nc(N)nc(N)c2n1)c1ccc(C(=O)N[C@@H](CCC(=O)O)C(=O)O)cc1", "values": [{"measurement": "T/C", "setting": "dose: 0.12 mg/kg/injection, schedule: Q01DX028 (sc), vehicle: other", "value": "105 % of control"}, {"measurement": "T/C", "setting": "dose: 1.0 mg/kg/injection, schedule: Q01DX028 (sc), vehicle: other", "value": "98 % of control"}]}, {"compound": "COC12C(COC(N)=O)C3=C(C(=O)C(C)=C(N)C3=O)N1CC1C2N1C", "note": "(stereo unspecified)", "values": [{"measurement": "T/C", "setting": "dose: 0.7 mg/kg/injection, schedule: Q01DX028 (sc), vehicle: saline", "value": "124 % of control"}, {"measurement": "T/C", "setting": "[7]", "value": "178 % of control"}, {"measurement": "T/C", "setting": "dose: 3.0 mg/kg/injection, schedule: Q01DX028 (sc), vehicle: saline", "value": "156 % of control"}]}, {"compound": "CS(=O)(=O)OCCN(CCOS(C)(=O)=O)c1ccc(C(=O)O)cc1", "values": [{"measurement": "T/C", "setting": "dose: 20.0 mg/kg/injection, schedule: Q01DX028 (sc), vehicle: carboxymethylcellulose (CMC)", "value": "205 % of control"}, {"measurement": "T/C", "setting": "dose: 40.0 mg/kg/injection, schedule: Q01DX028 (sc), vehicle: carboxymethylcellulose (CMC)", "value": "350 % of control"}, {"measurement": "T/C", "setting": "dose: 55.0 mg/kg/injection, schedule: Q01DX028 (sc), vehicle: carboxymethylcellulose (CMC)", "value": "255 % of control"}, {"measurement": "T/C", "setting": "dose: 80.0 mg/kg/injection, schedule: Q01DX028 (sc), vehicle: carboxymethylcellulose (CMC)", "value": "197 % of control"}, {"measurement": "T/C", "setting": "dose: 180.0 mg/kg/injection, schedule: Q01DX028 (sc), vehicle: carboxymethylcellulose (CMC)", "value": "105 % of control"}, {"measurement": "T/C", "setting": "dose: 270.0 mg/kg/injection, schedule: Q01DX028 (sc), vehicle: carboxymethylcellulose (CMC)", "value": "89 % of control"}]}]}
